Measurements: publication PMC12005767 (Advanced Science, 2025)

Columns and labels:
[1] = target: T1, HDAC11 (Homo sapiens, UniProt Q96DB2); assay: HDAC11 inhibition fluorescence assay (ETDKmyr substrate); assay type: biochemical; conditions: for IC50: mean ± SEM
T1 construct: The HDAC11 enzyme was a full‐length human recombinant HDAC enzyme sourced from BPS Bioscience; purchased BPS Bioscience
T1 sequence (Q96DB2 1-347): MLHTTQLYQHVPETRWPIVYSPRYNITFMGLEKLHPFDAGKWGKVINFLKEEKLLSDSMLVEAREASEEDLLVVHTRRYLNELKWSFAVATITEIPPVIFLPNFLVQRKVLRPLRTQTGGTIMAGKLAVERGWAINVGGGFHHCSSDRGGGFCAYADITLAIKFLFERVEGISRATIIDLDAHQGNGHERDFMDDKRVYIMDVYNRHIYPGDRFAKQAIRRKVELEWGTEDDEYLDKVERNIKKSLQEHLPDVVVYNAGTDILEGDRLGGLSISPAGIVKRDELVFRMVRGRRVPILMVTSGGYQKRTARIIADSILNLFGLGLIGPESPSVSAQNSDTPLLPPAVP
Procedure: The HDAC11 enzyme was a full‐length human recombinant HDAC enzyme sourced from BPS Bioscience. In detail, a total of 20 µL of recombinant HDAC11 enzyme solution (working concentration = 1 × 10^−9 M) was combined with varying concentrations of the test compound (20 µL) in a 96‐well black plate. The mixture was then incubated at a temperature of 30 °C for a duration of 1 h. Subsequently, 10 µL of the specific fluorogenic substrate (ETDKacyl‐Kmyr) was added. Following 2 h incubation at 30 °C, the catalytic reaction was ceased by adding 10 µL of a developer solution consisting of 2 mg mL^−1 trypsin and 5 × 10^−6 M trichostatin A (TSA). After a standing period of 6 h, the fluorescence intensity was assessed using a microplate reader at excitation and emission wavelengths of 360 and 460 nm, respectively. The inhibition ratios were calculated based on the fluorescence intensity readings of the test wells compared to the control wells. GraphPad Prism 8.0 software was employed to generate IC 50 curves and determine the corresponding IC 50 values utilizing the “log(inhibitor) versus normalized response‐variable slope” function.

[2] = target: T2, HDAC3 (Homo sapiens, UniProt O15379); assay: In vitro HDACs inhibition fluorescence assay, HDAC3; assay type: biochemical; conditions: mean ± SEM
T2 construct: purchased BPS Bioscience
Procedure: (§1) In Vitro HDACs Inhibition Fluorescence Assay: For the inhibitory activity against HDAC1‐10, enzymes were also procured from BPS Bioscience. The in vitro […] inhibition assays were conducted following the established method described previously.^[ [45] ^] The working concentrations of HDAC1‐10 were 4 × 10^−9 M. The fluorogenic substrate of HDAC1, 2, 3, and 6 was Boc‐Lys (acetyl)‐AMC, and the substrate of HDAC4, 5, 7, 8, 9, and 10 was Boc‐Lys (trifluoroacetyl) AMC. The developer solution consists of 30 mg mL^−1 trypsin and 5 × 10^−6 M TSA. A standing period of 30 min was sufficient before assessing the fluorescence intensity.

[3] = target: T3, HDAC1 (Homo sapiens, UniProt Q13547); assay: In vitro HDACs inhibition fluorescence assay, HDAC1; assay type: biochemical; conditions: mean ± SEM
T3 construct: purchased BPS Bioscience
Procedure: as §1

[4] = target: T3, HDAC1; set-up: method as in PMID 27754681; conditions: prior research; cited from earlier work

T3 sequence (Q13547 whole entry): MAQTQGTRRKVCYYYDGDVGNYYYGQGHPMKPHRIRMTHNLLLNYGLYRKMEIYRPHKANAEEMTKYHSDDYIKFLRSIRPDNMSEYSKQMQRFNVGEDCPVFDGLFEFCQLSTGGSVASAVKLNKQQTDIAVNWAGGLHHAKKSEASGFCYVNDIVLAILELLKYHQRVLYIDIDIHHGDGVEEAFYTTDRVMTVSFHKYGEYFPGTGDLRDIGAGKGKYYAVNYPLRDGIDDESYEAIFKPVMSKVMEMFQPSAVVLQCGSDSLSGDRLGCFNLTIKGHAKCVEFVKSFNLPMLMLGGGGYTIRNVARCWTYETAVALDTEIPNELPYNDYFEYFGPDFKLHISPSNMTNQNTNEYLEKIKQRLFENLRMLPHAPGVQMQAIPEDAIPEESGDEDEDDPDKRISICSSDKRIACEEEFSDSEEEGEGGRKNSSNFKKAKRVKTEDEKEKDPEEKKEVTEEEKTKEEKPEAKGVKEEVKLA
T2 sequence (O15379 whole entry): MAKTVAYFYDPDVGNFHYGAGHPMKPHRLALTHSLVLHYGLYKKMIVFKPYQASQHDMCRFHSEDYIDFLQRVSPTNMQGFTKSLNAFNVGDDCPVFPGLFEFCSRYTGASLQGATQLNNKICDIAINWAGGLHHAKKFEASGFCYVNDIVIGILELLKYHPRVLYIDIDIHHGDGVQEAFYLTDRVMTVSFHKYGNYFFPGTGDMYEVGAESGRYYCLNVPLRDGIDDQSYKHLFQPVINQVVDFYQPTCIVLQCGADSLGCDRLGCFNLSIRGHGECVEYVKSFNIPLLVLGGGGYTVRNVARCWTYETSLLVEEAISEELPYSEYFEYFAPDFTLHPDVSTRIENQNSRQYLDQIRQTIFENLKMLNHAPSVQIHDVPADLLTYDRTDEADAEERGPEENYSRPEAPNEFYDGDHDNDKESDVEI
T2 sequence (Q9Y618 395-489 partner limits assumed): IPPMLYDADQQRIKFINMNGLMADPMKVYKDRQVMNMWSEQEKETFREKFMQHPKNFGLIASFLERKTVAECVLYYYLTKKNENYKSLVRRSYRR

SMILES | IC50 [1] [nM] | IC50 [2] [nM] | IC50 [3] [nM] | IC50 for HDAC1 (in words) [4] | inhibitory activity against HDAC11 (in words) [1]
CCCOCCCCCCCNNC(=O)c1ccc(CNC(=O)c2ccccc2)cc1 [B4] | 257 ± 12.1 | – | – | – | –
CCCCCCCCCCCCCCCCNNC(=O)c1cccs1 [SIS17, reference compound] | 243 ± 12.3 | > 10000 | > 10000 | – | –
O=C(NCc1ccc(C(=O)NNCCCCCCCCCCO)cc1)c1ccccc1 [B1] | 664 ± 64.9 | – | – | – | –
CCCCCCCNNC(=O)c1ccc(CNC(=O)c2ccccc2)cc1 [A4] | 3310 ± 157 | 6360 ± 324 | 415 ± 153 | – | –
CCCCCCNNC(=O)c1ccc(CNC(=O)c2ccccc2)cc1 [A3] | > 10000 | 6.79 ± 0.19 | 34.5 ± 3.15 | – | –
CCCCCCCCNNC(=O)c1ccc(CNC(=O)c2ccccc2)cc1 [A5] | 942 ± 94.1 | 501 ± 2.4 | 2050 ± 27.5 | – | –
COCCOCCCCCCNNC(=O)c1ccc(CNC(=O)c2ccccc2)cc1 [B7] | 2440 ± 223 | – | – | – | –
COCCCCCCCCCNNC(=O)c1ccc(CNC(=O)c2ccccc2)cc1 [B2] | 1550 ± 116 | – | – | – | –
CCOCCOCCCCCNNC(=O)c1ccc(CNC(=O)c2ccccc2)cc1 [B8] | 801 ± 49.5 | – | – | – | –
CCCCOCCCCCCNNC(=O)c1ccc(CNC(=O)c2ccccc2)cc1 [B5] | 357 ± 16.5 | – | – | – | –
CCCCCCCCCCCCNNC(=O)c1ccc(CNC(=O)c2ccccc2)cc1 [A9] | 132 ± 4.29 | > 10000 | > 10000 | – | –
CCCCCNNC(=O)c1ccc(CNC(=O)c2ccccc2)cc1 [A2] | 6740 ± 324 | – | 45.6 ± 2.36 | low nanomolar | moderate inhibitory activity
CCOCCCCCCCCNNC(=O)c1ccc(CNC(=O)c2ccccc2)cc1 [B3] | 494 ± 41.9 | – | – | – | –
CCCCCCCCCNNC(=O)c1ccc(CNC(=O)c2ccccc2)cc1 [A6] | 504 ± 45.5 | 2050 ± 39.5 | > 10000 | – | –
CCCCNNC(=O)c1ccc(CNC(=O)c2ccccc2)cc1 [A1] | 3250 ± 241 | – | 20.5 ± 1.4 | low nanomolar | moderate inhibitory activity
CCCCCCCCCCNNC(=O)c1ccc(CNC(=O)c2ccccc2)cc1 [A7] | 416 ± 41.1 | > 10000 | > 10000 | – | –
